Experimental data reported in US9618453B2, “Aggregation induced emission of fluorescent bioprobes and methods of using the same” (THE HONG KONG UNIVERSITY OF SCIENCE AND TECHNOLOGY, priority 2011, dated 2017).

Experiments:
[1] = target: bovine serum albumin (BSA) (Bos taurus, UniProt P02769); experiment: Fluorescence labeling of BSA with TPE-SO3 in phosphate buffer; settings: BSA 5 μM, pH 7.0
Procedure: Fluorescence labeling was carried out by sequentially adding solutions of TPE-SO3 to 100 μL aliquots of BSA solutions. The mixtures were stirred for half an hour prior to taking their spectra.
The PL peak intensities of the BSA prepared with the lowest concentrations of TPE-SO3 were used as the reference and plots of the normalized fluorescence versus the concentrations of TPE-SO3 were obtained (FIG. 22). […] TPE-SO3 is represented by the following chemical formula: […]

[2] = Photoluminescence in THF/water mixtures with different water fractions (aggregation induced emission); assay type: physicochemical; settings: water/THF solution, water fraction 90 vol %
Excerpt: The AIE of TPENCS is illustrated in FIG. 1. […] With water content ranging from 0-70%, the fluorescence intensity remained at a very low level. When the water concentration was in the 80-90 vol % range, a rapid and dramatic increase of the fluorescence intensity with increasing water content was observed (FIG. 1b). The PL intensity of TPENCS in the water/THF solution with a water fraction of 90 vol % was approximately 50-fold higher than that in the mixture with 70% water. The quantum efficiency of TPENCS was 52.2% in the solid state.
Similar to other AIE active molecules, TPEMBR only gave weak emission in good solvents such as THF. […] To quantify the effect of water content on the degree of fluorescent emission enhancement, the photoluminescence intensity of TPEMBR was measured where the fraction of water was increased from 0 to 90 vol %. With the water content in the range of 0-70%, the fluorescent intensity remained at a very low level. With the water fraction reaching the 80-90 vol % range, a rapid and dramatic increase of the fluorescent intensity was observed (FIG. 9b). The photoluminescence intensity of TPEMBR in the water/THF solution with a water fraction of 90 vol % was approximately 50-fold stronger than that in the mixture with 70% water. In the solid state, the quantum efficiency of TPEMBR was determined to be 31.7%.
The AIE of SITC is illustrated in FIGS. 17a and 17b. The wavelength at maximum absorption of SITC was at 363 nm and the emission maximum was at 490 nm. […] To quantify the effect of water content on the elevation of the fluorescent emission, the photoluminescence intensity of SITC was measured with concentration of water increasing from 0 to 90 vol %. With water content ranging from 0-70%, the fluorescent intensity remained at a very low level. When the water concentration was in the 80-95 vol % range, a rapid and dramatic increase of the fluorescent intensity with increasing water content was observed (FIG. 17b). The photoluminescence intensity of SITC in the water/THF solution with a water fraction of 95 vol % was approximately 50-fold higher than that in the mixture with 70% water. The quantum efficiency of SITC was 45.8% in the solid state.
(§1) Tetrahydrofuran (THF; Labscan) was distilled under nitrogen from sodium benzophenone ketyl immediately prior to use. Acrylamide was purchased from Bio-Rad. Aminoallyl-dUTP (aa-dUTP), dNTPs, DNase I (RNase-free), DNA Polymerase I, Klenow Fragment exo-, Random Hexamer Primer, Long PCR Enzyme Mix and GeneJET™ PCR Purification Kit, GeneRuler™ 100 bp Plus DNA Ladder (ready-to-use, 100-3000 bp), 6×DNA Loading Dye were purchased from Fermentas (Thermo Scientific). Deep VentR™ exo-DNA Polymerase was purchased from New England Biolabs (NEB). Synthesized oligonucleotides (primers) were purchased from Tech Drogon Limited. GelRed™ Nucleic Acid Gel Stain (10000× in water) was purchased from Biotium. Other chemicals, reagents and solvents were all purchased from Aldrich or Invitrogen. ^1H and ^13C NMR spectra were measured on a Bruker ARX 400 NMR spectrometer using CDCl3 as solvent. High-resolution mass spectra (HRMS) were taken on a Finnigan TSQ 7000 triple quadrupole spectrometer in a MALDI-TOF mode. UV spectra were measured on a Milton Roy Spectronic 3000 Array spectrophotometer. Fluorescence (FL) spectra were recorded on a Perkin-Elmer LS 55 spectrofluorometer. FL quantum yields (ΦF) of amorphous powders of siloles were measured using C-701 Time-Resolved Spectrofluorometer with the integrating sphere as accessory.
Structure of dye is confirmed by standard spectroscopic methods (FIGS. 23, 26a, and 27a). In order to confirm TPEITC is AIE-active, we investigated its fluorescence in THF/water mixtures with different water fractions. […] TPEITC molecules with hydrophobic aromatic cores precipitated and became aggregate in the nonsolvent mixture. Aggregation blocks the nonradiative relaxation channels and populates the radiative decay, thus resulting in high luminescence. […]

[3] = Fluorescence quantum efficiency in the solid state; assay type: physicochemical
Excerpt: as §1

[4] = Quantum efficiency of TPEMBR before and after reaction with dithiothreitol (DTT); assay type: physicochemical; settings: water/THF solution, water fraction 90 vol %
Procedure: In addition to the enhancement of fluorescence because of its AIE property, TPEMBR becomes even more emissive through the reaction between its bromomethyl group and thiol group of proteins, presumably due to the elimination of the internal heavy atom effect of bromide. […] TPEMBR and DTT in equal amount were dissolved in THF to give a concentration of 10 μM for each component. The mixture was then incubated at room temperature overnight. Photoluminescence intensity and UV absorption of TPEMBR were measured in THF/water mixtures with a water fraction of 90 vol % before and after reacting with DTT. As shown in FIGS. 12a and 12b, the quantum efficiency of TPEMBR in the water/THF solution with a water fraction of 90 vol % was approximately 3 times higher after reacting with DTT.

BSA (35 Cys) = BSA (35 Cys) (Bos taurus, UniProt P02769); experiment: Fluorescent labeling of Cys residues of protein with TPEMBR, SDS-PAGE; design: species or system bovine
BSA (35 Cys), sequence (P02769 25-607): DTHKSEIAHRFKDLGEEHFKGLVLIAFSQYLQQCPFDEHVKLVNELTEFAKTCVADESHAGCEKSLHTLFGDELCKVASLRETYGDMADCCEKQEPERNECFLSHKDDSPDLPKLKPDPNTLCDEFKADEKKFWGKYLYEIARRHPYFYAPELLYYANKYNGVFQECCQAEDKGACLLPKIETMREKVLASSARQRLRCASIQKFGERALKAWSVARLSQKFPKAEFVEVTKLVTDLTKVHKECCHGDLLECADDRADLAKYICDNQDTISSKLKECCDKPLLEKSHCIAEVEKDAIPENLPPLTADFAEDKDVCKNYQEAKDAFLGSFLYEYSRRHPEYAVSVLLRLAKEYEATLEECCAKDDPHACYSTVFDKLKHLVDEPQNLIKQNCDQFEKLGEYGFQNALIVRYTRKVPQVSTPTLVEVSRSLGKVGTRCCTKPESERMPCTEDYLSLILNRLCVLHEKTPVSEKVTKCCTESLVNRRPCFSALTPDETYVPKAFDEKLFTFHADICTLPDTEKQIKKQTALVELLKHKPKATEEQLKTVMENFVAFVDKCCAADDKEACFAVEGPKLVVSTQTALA
Procedure: (§2) 2.5 μL Tris-HCl (1 M), 2.5 μL TCEP (20 mM), 5 μL BSA (1 mg/mL, 15 μM), and 30 μL urea (8 M in water) was added to a 1.5 mL Eppendorf tube and mixed well. The mixture was incubated at room temperature for 30 min to pre-reduce the disulfide bonds with TCEP. Then, 10 μL of the TPEMBR DMSO stock solution (2.5 mM 5×) was added to the system and made the final volume 50 μL. The reaction mixture was incubated for 3 hours at 50° C. in an Eppendorf Thermomixer. Then, samples were cooled either to room temperature for instant use or frozen for eventual use.
In order to ensure that the Cys residues were sufficiently labeled with TPEMBR, a longer reaction time (usually overnight) at or below room temperature was required. Alternatively, the reaction time could be reduced if labeling was carried out at 50° C. To verify the time-dependence of labeling efficiency, bovine serum albumin (BSA) samples were labeled with TPEMBR for different times ranging from 10 min to 4 h and analyzed by SDS-PAGE. The fluorescence intensity of the labeled BSA increased as the reaction time was extended. The maximum intensity under specific labeling conditions was observed after 3 h and remained unchanged even with an additional 1 h of reaction time (FIGS. 11a and 11b). […] The time-dependent labeling effect provides a way to determine the desirable DOL according to different applications by simply controlling the labeling time. Meanwhile, a lower temperature labeling process with a longer reaction time could be a better choice to obtain fluorescent proteins while maintaining their native structures.
BSA samples were subjected to labeling with different dye concentrations. The SDS-PAGE fluorescence intensity of labeled BSA increased with increasing dye concentration. […] Further increasing the dye concentration could give higher fluorescence intensity due to nonspecific labeling. Clearly, the DOL of protein samples can be controlled by varying the dye concentration.
(§3) Specific labeling of Cys residues by TPEMBR was examined through the labeling of proteins with different Cys contents. BSA (35 Cys), yeast enolase (single Cys) and horse myoglobin (0 Cys) were labeled with 0.5 mM of TPEMBR, respectively. The corresponding fluorescent products were analyzed on gel. […] The results further confirmed the specificity of TPEMBR to Cys residue when the working concentration of 0.5 mM was used.
BSA was labeled by each dye with a series of varying dye/thiol ratios. After the electrophoresis, the gel fluorescent image was taken under UV excitation and the fluorescence intensity was obtained from three independent experiments. Fluorescence intensities normalized with the sample with the lowest dye concentration are plotted versus the dye/thiol ratio (FIG. 16). […] This self-quenching effect is inevitable for self-quenching dyes such as 5-BMF and limits these dyes' application on quantification of proteins. In contrast, detection and quantification of proteins with high contents of Cys can be easily achieved by using AIE active molecules such as TPEMBR.

horse myoglobin (0 Cys) = horse myoglobin (0 Cys) (Equus caballus, UniProt P68082); experiment: as above; settings: 0.5 mM dye
horse myoglobin (0 Cys), sequence (P68082 whole entry): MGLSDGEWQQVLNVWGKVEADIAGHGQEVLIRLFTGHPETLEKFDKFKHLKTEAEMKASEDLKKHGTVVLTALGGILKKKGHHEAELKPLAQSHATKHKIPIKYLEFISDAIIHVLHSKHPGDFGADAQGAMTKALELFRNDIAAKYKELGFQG
Procedure: as §2, §3

bovine serum albumin (BSA), sequence (P02769 25-607): as the sequence (P02769 25-607) above

Row | PL intensity relative to the mixture with 70% water [2] | quantum efficiency [3] | quantum efficiency after reacting with DTT relative to before [4] | emission of labeled protein on gel (BSA (35 Cys); 0.5 mM dye) | dye concentration at which maximum intensity was reached (BSA (35 Cys); SDS-PAGE fluorescence intensity of labeled BSA) | labeling time to maximum fluorescence intensity (BSA (35 Cys); labeling at 50° C., 10 min to 4 h) | self-quenching effect versus dye/thiol ratio (BSA (35 Cys); series of dye/thiol ratios) | emission of labeled protein on gel (horse myoglobin (0 Cys)) | SMILES | fluorescence intensity of labeled BSA versus dye concentration [1]
1 | – | – | – | – | – | – | – | – | O=S(=O)([O-])CCCOc1ccc(C(=C(c2ccccc2)c2ccc(OCCCS(=O)(=O)[O-])cc2)c2ccccc2)cc1.[Na+].[Na+] (mixture of isomers) [TPE-SO3] | increased continuously
2 | approximately 50 fold | 31.7% | approximately 3 times | much higher emission than yeast enolase | ≥ 0.5 mM | 3 h | kept on increasing | no fluorescence at all | BrCc1ccc(C(=C(c2ccccc2)c2ccccc2)c2ccccc2)cc1 [TPEMBR] | –
